The values below come from US6809096B1, “Phenanthroline-7-one derivatives and their therapeutic uses” (Laboratoire L. Lafon, priority 1999, dated 2004).

The nature of data set [1]: Determination of the maximum tolerated dose (MTD). The note with it: mouse, in vivo, ip; B6D2F1/Jico mice, single intraperitoneal administration, survival over 14 days, doses 2.5 to 160 mg/kg; read-out: DMT (mg/kg) (Maximum Tolerated Doses). On the procedure: 2—Determination of the Maximum Tolerated Dose (MTD)
The evaluation of the maximum tolerated dose was carried out on B6D2F1/Jico mice aged from 4 to 6 weeks. The compounds were administered intraperitoneally at increasing doses ranging from 2.5 to 160 mg/kg. The value of the MTD (expressed in mg/kg) is determined from the observation of the survival rates of the animals over a period of 14 days after a single administration of the product under consideration. The change in the weight of the animals is also monitored over this period. When that the value of the MTD is greater than 160 mg/kg, the value of the MTD is categorized as 160 mg/kg by default.

Data set [2] has as its system 12 human cancer cell lines (U-373MG, U-87MG, SW1088, A549, A-427, HCT-15, LoVo, T-47D, MCF7, J82, T24, PC-3). The data set can be described thus: Cytotoxic activity on tumour cell lines in culture (MTT test). The data set is classed as cell-based. To be noted: Homo sapiens, mean IC50 calculated from the individual cytotoxic activities on each of the 12 tumour lines, 72 hours incubation. On the procedure: 1—Cytotoxic Activity on Tumour Cell Lines in Culture (MTT Test)
The influence of the compounds of formula (I) and of (Ia) on tumour cells was evaluated using the MTT calorimetric test (T. Mosman, J. Immunol. Methods, 1983; 65: 55-63, J. Carmichael et al., Cancer Res. 1987; 47: 936-942).
The principle of the MTT test is based on the mitochondrial reduction by metabolically active alive cells of the yellow-coloured product MTT (3-(4,5-dimethylthiazol-2-yl)-2,5-diphenyltetrazolium bromide) to a blue-coloured product, formazan. The amount of formazan thus obtained is directly proportional to the amount of live cells present in the culture well or wells. This amount of formazan is measured by spectrophotometry.
The cell lines are maintained in monolayer culture at 37° C. in stoppered culture dishes containing 25 MM HEPES MEM (Minimum Essential Medium) base medium. This medium is well suited to the growth of a range of varied diploid or primary mammalian cells. This medium is subsequently supplemented: […]
with an amount of 5% of FCS (Foetal Calf Serum) decomplemented at 56° C. for 1 hour, with 0.6 mg/ml of L-glutamine, with 200 IU/ml of penicillin, with 200 μg/ml of streptomycin, with 0.1 mg/ml of gentamicin.
The 12 human cancer cell lines which were used were obtained from the American Type Culture Collection (ATCC, Rockville, Md., USA). These 12 cell lines are:
U-373MG (ATCC code: HTB-17) and U-87MG (ATCC code: HTB-14), which are two glioblastomas, SW1088 (ATCC code: HTB-12) which is an astrocytoma, A549 (ATCC code: CCL-185) and A-427 (ATCC code: HTB-53), which are two non-small-cell lung cancers, HCT-15 (ATCC code: CCL-225) and LoVo (ATCC code: CCL-229), which are two colorectal cancers, T-47D (ATCC code: HTB-133) and MCF7 (ATCC code: HTB-22), which are two breast cancers, J82 (ATCC code: HTB-1) and T24 (ATCC code: […]), which are two bladder cancers, PC-3 (ATCC code: CRL-1435), which is a prostate cancer.
Experimentally: 100 μl of a cell suspension comprising 20 000 to 50 000 (depending on the cell type used) cells/ml of culture medium are inoculated in flat-bottomed 96-well multi-well plates and are incubated at 37° C. under an atmosphere comprising 5% of CO2 and 70% humidity. After incubating for 24 hours, the culture medium is replaced with 100 μl of fresh medium comprising either the various test compounds at concentrations varying from 10^−5 to 10^−10 M of the solvent used to dissolve the -test products (control condition). After incubating for 72 hours under the above conditions, the culture medium is replaced with 100 μl of a yellowish solution of MTT dissolved, in a proportion of 1 mg/ml, in RPMI 1640. The microplates are reincubated for 3 hours at 37° C. and then centrifuged for 10 minutes at 400 g. The yellowish MTT solution is removed and the blue formazan crystals formed at the cellular level are dissolved in 100 μl of DMSO. The microplates are subsequently agitated for 5 minutes. The intensity of the resulting blue coloration, and thus of the conversion of the yellow MTT product into blue formazan by the cells which are still alive at the end of the experiment, is quantified by spectrophotometry using a device of DYNATECH IMOASSAY SYSTEM type at wavelengths of 570 nm and 630 nm corresponding respectively to the maximum absorption wavelengths of formazan and to the background noise. Software built into the spectrophotometer calculates the mean optical density values and the standard deviation (Std. Dev.) and standard error of the mean (SEM) values.
The inhibitory activity on the cell growth of the compounds of formula (I) and (Ia) on the various tumour cell lines was measured in comparison with that of the natural product.

For data set [3], the system named is leukaemia cell model. To be noted: cytotoxicity; cited from earlier work.

Turning to `COc1ccc2c(n1)C(=O)c1ncc(OC)c3ccnc-2c13` [CRL 8479, 4,9-Dimethoxy-7H-pyrido[4,3,2-de][1,7]phenanthroline-7-one], the melting point was above 260 °C.

Consider `COc1cnc2c3c(nccc13)-c1cccnc1C2=O` [CRL 8401, 4-Methoxy-7H-pyrido[4,3,2-de][1,7]phenanthroline-7-one], for which the MTD at 14 days in data set [1] is above 160 mg/kg. Besides, the concentration for half-maximal inhibition (IC50) in data set [2] is 53 nM. As to `O=C1c2nccc(O)c2-c2nccc3ccnc1c23` [CRL 8388, 11-Hydroxy-7H-pyrido[4,3,2-de][1,7]phenanthroline-7-one], in data set [1], the MTD at 14 days is 10 mg/kg. Further, the half-maximal inhibitory concentration (IC50) in data set [2] was 6200 nM. Consider 2-bromoleptoclinidone, for which the ED50 in data set [3] is 0.4 µg/mL. Turning to `COc1ccnc2c1C(=O)c1nccc3ccnc-2c13` [CRL 8363, 8-Methoxy-7H-pyrido[4,3,2-de][1,10]phenanthroline-7-one], the MTD at 14 days in data set [1] was found to be 10 mg/kg. In data set [2], the half-maximal inhibitory concentration (IC50) was 500 nM. With `O=C1c2ncccc2-c2nccc3c(Cl)cnc1c23` [CRL 8480, 4-Chloro-7H-pyrido[4,3,2-de][1,7]phenanthroline-7-one], the melting point was above 260 °C. As for `COc1ccnc2c1-c1nccc3ccnc(c13)C2=O` [CRL 8364, 11-methoxy-7H-pyrido[4,3,2-de][1,7]phenanthroline-7-one], in data set [1], the MTD at 14 days stood at 5 mg/kg. Moreover, the IC50 in data set [2] was 270 nM.

`O=C1c2nc(O)ccc2-c2nccc3ccnc1c23` [CRL 8483, 9-Hydroxy-7H-pyrido[4,3,2-de][1,7]phenanthroline-7-one] had a melting point above 260 °C. Consider `O=C1c2c(Cl)ccnc2-c2nccc3ccnc1c23` [CRL 8396, 8-Chloro-7H-pyrido[4,3,2-de][1,10]phenanthroline-7-one], for which the MTD at 14 days in data set [1] stood at 20 mg/kg. Also, in data set [2], the IC50 was 600 nM.

Compound `I.I.O=C1c2ncccc2-c2nccc3c(O)cnc1c23` [CRL 8487, 4-Hydroxy-7H-pyrido[4,3,2-de][1,7]phenanthroline-7-one dihydroiodide] displayed a melting point above 260 °C. As for `COc1ccnc2c1-c1nccc3c(OC)cnc(c13)C2=O` [CRL 8440, 4,11-Dimethoxy-7H-pyrido[4,3,2-de][1,7]phenanthroline-7-one], the MTD at 14 days in data set [1] came out at 20 mg/kg. The IC50 in data set [2] was 10 nM. `CN(C)c1cnc2c3c(nccc13)-c1cccnc1C2=O` [CRL 8481, 4-Dimethylamino-7H-pyrido[4,3,2-de][1,7]phenanthroline-7-one]: the melting point was above 260 °C. Turning to `COc1cnc2c3c(nccc13)-c1c(N(C)C)ccnc1C2=O` [CRL 8441, 4-Methoxy-11-dimethylamino-7H-pyrido[4,3,2-de][1,7]phenanthroline-7-one], the MTD at 14 days in data set [1] is above 160 mg/kg. Further, the IC50 in data set [2] is 5000 nM. Take `CN(C)c1ccnc2c1-c1nccc3ccnc(c13)C2=O` [CRL 8367, 11-(Dimethylamino)-7H-pyrido[4,3,2-de][1,7]phenanthroline-7-one]: the MTD at 14 days in data set [1] amounted to 10 mg/kg. Also, the IC50 in data set [2] is 1650 nM. As to `COc1cnc2c3c(nccc13)-c1ncccc1C2=O` [CRL 8400, 4-Methoxy-7H-pyrido[4,3,2-de][1,10]phenanthroline-7-one], the MTD at 14 days in data set [1] is above 160 mg/kg. Further, the IC50 in data set [2] was 380 nM.

In the case of `CN(C)c1cc(Cl)nc2c1-c1nccc3ccnc(c13)C2=O` [CRL 8486, 9-Chloro-11-dimethylamino-7H-pyrido[4,3,2-de][1,7]phenanthroline-7-one], the melting point turned out to be 246 °C. In the case of `COc1cc(OC)c2c(n1)C(=O)c1nccc3ccnc-2c13` [CRL 8485, 9,11-Dimethoxy-7H-pyrido[4,3,2-de][1,7]phenanthroline-7-one], the melting point was above 260 °C. Regarding `CCOC(=O)c1cnc2c(c1)-c1nccc3ccnc(c13)C2=O` [CRL 8482, 10-Ethoxycarbonyl-7H-pyrido[4,3,2-de][1,7]phenanthroline-7-one], the melting point was determined as 246 °C. As for `COc1ccc2c(n1)C(=O)c1nccc3ccnc-2c13` [CRL 8484, 9-Methoxy-7H-pyrido[4,3,2-de][1,7]phenanthroline-7-one], the melting point was above 260 °C.
